Test results reported in US20210113522A1, “COUMARIN DERIVATIVE AS ANTI-ASTHMATIC AGENT, PHARMACEUTICAL COMPOSITION THEREOF, ITS PREPARATION AND USE” (I-NOVA MEDICINSKA ISTRAZIVANJA D.O.O., priority 2017, published 2021).

Assays:
[1] = MTT cytotoxicity / cell survival in murine fibroblast line L20B; format: cell-based; settings: mouse; L20B, 48 h; read-out: CC50 (cytotoxic concentration for 50% cells)
Experimental: (§1) Cytotoxicity of compound 1 was determined through the study of cell growth and viability by the methods of determination of maximal non-toxic concentration (MNC) and concentration required for cell viability by 50% (CC50). […] Cytotoxic concentration at 50% (CC50) was defined as the concentration of the test substance 1 at which 50% of the cells die as a result of toxicity of the test substance.
(§2) Evaluation of cytotoxicity was an important part of the assessment of anti-asthmatic activity of compound 1 since its beneficial therapeutic effect at asthma and other inflammatory respiratory diseases should be selective with little or no effects on the metabolism of host cells. The study of cytotoxicity of compound 1 was performed on two types of cell lines of murine fibroblasts L20B and L929 from European collection of cell cultures (ECACC).
(§3) Cell viability was estimated by a modification of the 3-(4,5-dimethylthiazol-2-yl)-2,5-diphenyltetrazolium bromide (MTT) assay which is one of the most frequently used methods for measuring cell proliferation and cytotoxicity; see literature reference 12: • 12) T. Mosmann: Rapid colorimetric assay for cellular growth and survival: Application to proliferation and cytotoxicity assays, J. Immunol. Methods 65 (1983) 55-63.
(§4) Cell viability was reported as the percentage (%) of viable cells in the wells treated with different concentrations of the test compound 1, compared to the control cells untreated with the substance. Maximal non-toxic concentration (MNC) and cytotoxic concentration for 50% of cells (CC50) were calculated from the constructed “dose-cellular survival” curve.
(§5) Cytotoxicity of compound 1 was determined through the study of cell growth and viability by the methods of determination of maximal non-toxic concentration (MNC) and concentration required for cell viability by 50% (CC50).
(§6) The compound 1 (Mw=410.02) under study were first dissolved in DMSO (Sigma-Aldrich) to a concentration of 0.1 mol/L (0.1 M) as a stockade later diluted in cell growth medium Dulbecco's Modified Eagle Medium (DMEM; Sigma-Aldrich) with 2% heat inactivated fetal bovine serum.
(§7) The study of cytotoxicity of compound 1 was performed on two types of murine fibroblasts cell lines: L20B and L929 from European collection of cell cultures (ECACC). Cells were routinely maintained as adherent cell cultures in DMEM medium and containing 10% Fetal bovine serum (FBS; Gibco), 2 mM L-glutamine (Sigma-Aldrich), 100 U/mL penicillin G sodium (Sigma-Aldrich), 100 μg/mL streptomycin sulphate (Sigma-Aldrich) at 37° C. in a humidified air incubator containing 5% carbon dioxide (CO2). Cultivation of the cells was continued with direct monitoring every two or three days using a phase contrast microscope. The cells are harvested in 1× trypsin/EDTA solution (Sigma-Aldrich). Cells were passages 1:3-1:5 at a density around 5-6·10^4 cells/mL, while the passage was re-suspended repeatedly.
(§8) Methods of determining cell growth, cell viability, maximal non-toxic concentration (MNC) and concentrations, required cell viability by 50% (CC50): Cell viability was estimated by a modification of the MTT [3-(4,5-dimethylthiazol-2-yl)-2,5-diphenyltetrazolium bromide] assay; see literature reference 12. The MTT reduction assay is one of the most frequently used methods for measuring cell proliferation and cytotoxicity. The intensity of colour (measured spectrophotometrically) of the MTT formazan produced by living, metabolically active cells by measuring the activity of succinate dehydrogenase, mostly located in mitochondria was proportional to the number of live cells present. MTT was a yellow water-soluble tetrazolium dye that was reduced by live, but not dead cells to a purple formazan product that was insoluble in aqueous solutions.
(§9) Each cell line was plated at an appropriate density (7.5·10^3 cells/well for L20B cell culture and 4·10^4 cells/well for L929 cell culture) in 96-well plates (Costar Corning; USA) for 24 h. […]

L20B = experiment: as above; format: cell-based
Experimental: as §1, §2, §3, §4, §5, §6, §7, §8, §9

[2] = MTT cytotoxicity / cell survival in murine fibroblast line L929; format: cell-based; settings: mouse; L929, 48 h; read-out: CC50 (cytotoxic concentration for 50% cells)
Experimental: as §1, §2, §3, §4, §5, §6, §7, §8, §9

L929 = experiment: as above; format: cell-based
Experimental: as §1, §2, §3, §4, §5, §6, §7, §8, §9

[3] = system: mucus production in the airway; experiment: OVA model: airway mucus production (PAS staining); format: in vivo, Balb/c mice; settings: vs mice that received no treatment; 1 2 mg/kg therapeutically or preventively, beclomethasone 1 mg/kg
Experimental: Enhanced airway mucus production results from airway inflammation and is hallmark of allergic asthma. Thus, mechanisms that suppress immune responses in the lung could result in suppression of mucus production. Mucus production was measured 2 days after i.n. challenge in experimental mice that were treated with compound 1 or beclomethasone (as standard) and lung sections were stained with periodic acid-Schiff stain (PAS). Mucus production in the lung was quantitated immunohistologically by evaluation of mucus-positive epithelia. […]
Mucus production was measured 2 days after i.n. challenge in experimental mice that were treated with compound 1 or beclomethasone (as standard) and lung sections were stained with PAS. Mucus production in the lung was quantitated immunohistologically by evaluation of mucus-positive epithelia.

SMILES: O=c1oc2cc(O)cc(O)c2c(O)c1-c1coc2c1c(=O)oc1cc(O)cc(O)c12 [Compound 1, 7,9-dihydroxy-3-(4,5,7-trihydroxy-2-oxo-2H-chromene-3-yl)-4H-furo[3,2-c]chromen-4-one]
- CC50 at 48 h [1]: 9 mM
- Cell survival, cell culture L20B (L20B; 0.0001 mg/mL of 1, 48 h): 103.3%
- Cell survival, cell culture L20B (L20B; 0.001 mg/mL of 1, 48 h): 99.7%
- Cell survival, cell culture L20B (L20B; 0.01 mg/mL of 1, 48 h): 94.5%
- Cell survival, cell culture L20B (L20B; 0.05 mg/mL of 1, 48 h): 91.3%
- Cell survival, cell culture L20B (L20B; 0.1 mg/mL of 1, 48 h): 88.2%
- Cell survival, cell culture L20B (L20B; 0.5 mg/mL of 1, 48 h): 85.6%
- Cell survival, cell culture L20B (L20B; 1 mg/mL of 1, 48 h): 72.4%
- Cell survival, cell culture L20B (L20B; 5 mg/mL of 1, 48 h): 60.2%
- Cell survival, cell culture L20B (L20B; 10 mg/mL of 1, 48 h): 48.5%
- Cytotoxicity (overall, in words) (L20B; L20B, 48 h): low cytotoxicity
- Typical cytopathology characterizing the toxic effect (microscopic morphology of monolayers) (L20B; L20B, 48 h, 0.0001-10 mg/mL): not registered
- CC50 at 48 h [2]: 10 mM
- Cell survival, cell culture L929 (L929; 0.0001 mg/mL of 1, 48 h): 100.6%
- Cell survival, cell culture L929 (L929; 0.001 mg/mL of 1, 48 h): 98.8%
- Cell survival, cell culture L929 (L929; 0.01 mg/mL of 1, 48 h): 95.3%
- Cell survival, cell culture L929 (L929; 0.05 mg/mL of 1, 48 h): 87.1%
- Cell survival, cell culture L929 (L929; 0.1 mg/mL of 1, 48 h): 89.3%
- Cell survival, cell culture L929 (L929; 0.5 mg/mL of 1, 48 h): 83.2%
- Cell survival, cell culture L929 (L929; 1 mg/mL of 1, 48 h): 76.1%
- Cell survival, cell culture L929 (L929; 5 mg/mL of 1, 48 h): 64.9%
- Cell survival, cell culture L929 (L929; 10 mg/mL of 1, 48 h): 50.5%
- Cytotoxicity against L929 relative to L20B according to MNC values (L929; 48 h): 10 ×
- Cytotoxicity against L929 versus L20B according to CC50 values (L929; 48 h): the same cytotoxicity
- Cytotoxicity (overall, in words) (L929; L929, 48 h): low cytotoxicity
- Typical cytopathology characterizing the toxic effect (microscopic morphology of monolayers) (L929; L929, 48 h, 0.0001-10 mg/mL): not registered
- Mucin production in the airway (PAS) [3]: significant reduction
